In article PMC9604400, “Synthesis, Anticancer and Antitubercular Properties of New Chalcones and Their Nitrogen-Containing Five-Membered Heterocyclic Hybrids Bearing Sulfonamide Moiety” (International Journal of Molecular Sciences, 2022):
In brackets after ≈: the same amount, converted by molar mass.

What was measured:
MDA-MB-435 = assay: NCI-60 screen (SRB), melanoma; details: Homo sapiens; for IC50: MDA-MB-435; for CC50: MDA-MB-435, read-out: LC50
NCI-H522 = assay: NCI-60 screen (SRB), non-small cell lung cancer; details: Homo sapiens; for IC50: NCI-H522; for CC50: NCI-H522, read-out: LC50
HOP-62 = assay: NCI-60 screen (SRB), non-small cell lung cancer; details: Homo sapiens; for IC50: HOP-62; for CC50: HOP-62, read-out: LC50
HCC-2998 = assay: NCI-60 screen (SRB), colon cancer; details: for IC50 / CC50: Homo sapiens; for IC50: HCC 2998; for CC50: HCC 2998, read-out: LC50
[1] = Cytotoxicity on Vero cell line (MTT); assay type: cell-based, African green monkey; details: African green monkey, Vero cells (African green monkey kidney, ATCC CCL-81); MTT, 24 h
Vero cell line = assay: Cytotoxicity on Vero cell line (MTT); assay type: cell-based, African green monkey; details: Vero IC50 / MIC M. tuberculosis H37Rv
OVCAR-4 = assay: NCI-60 screen (SRB), ovarian cancer; details: Homo sapiens; for IC50: OVCAR-4; for CC50: OVCAR-4, read-out: LC50
leukemia cell lines = assay: NCI-60 screen (SRB), leukemia panel; assay type: cell-based; details: Homo sapiens; for inhibition at 10 µM: leukemia panel, single dose 10 μM, read-out: GI (growth inhibition), range over panel
HL-60(TB) = assay: cells; details: Homo sapiens; for IC50: HL-60; for CC50: HL-60, read-out: LC50
[2] = system: Mycobacterium bovis BCG (ATCC 35734); assay: microbe, parasite or virus in culture; assay type: cell-based; details: Mycobacterium tuberculosis variant bovis BCG, read-out: MIC Against M. bovis BCG
SF-539 = assay: NCI-60 screen (SRB), CNS cancer; details: Homo sapiens; for IC50: SF-539; for CC50: SF-539, read-out: LC50
SK-MEL-2 = assay: NCI-60 screen (SRB), melanoma; details: for IC50 / CC50: Homo sapiens; for IC50: SK-MEL-2; for CC50: SK-MEL-2, read-out: LC50
SNB-19 = assay: NCI-60 screen (SRB), CNS cancer; details: Homo sapiens; for IC50: SNB-19; for CC50: SNB-19, read-out: LC50
[3] = system: Mycobacterium tuberculosis H37Rv (ATCC 27294); assay: microbe, parasite or virus in culture; assay type: cell-based; details: Mycobacterium tuberculosis; agar dilution SPOTi; read-out: MIC Against M. tuberculosis H37Rv
renal cancer cell lines = assay: NCI-60 screen (SRB), renal cancer panel; assay type: cell-based; details: Homo sapiens, single dose 10 μM, read-out: GI (growth inhibition), range over panel
SK-MEL-28 = assay: NCI-60 screen (SRB), melanoma; details: Homo sapiens; for IC50: SK-MEL-28; for CC50: SK-MEL-28, read-out: LC50

SMILES | IC50 (MDA-MB-435) | CC50 (MDA-MB-435) | IC50 (NCI-H522) | CC50 (NCI-H522) | IC50 (HOP-62) | CC50 (HOP-62) | IC50 (HCC-2998) | CC50 (HCC-2998) | IC50 (OVCAR-4) | CC50 (OVCAR-4) | IC50 (HL-60(TB)) | CC50 (HL-60(TB)) | IC50 (SF-539) | CC50 (SF-539) | IC50 (SK-MEL-2) | CC50 (SK-MEL-2) | IC50 (SNB-19) | CC50 (SNB-19) | IC50 (SK-MEL-28) | CC50 (SK-MEL-28) | also measured
COc1cc(OC)c(S(N)(=O)=O)cc1C(=O)C=Cc1ccccc1 [Compound 17a, 5-Cinnamoyl-2,4-dimethoxybenzenesulfonamide] | 2.12 µM | 35.9 µM | 6.56 µM | 49.7 µM | 9.51 µM | 51.9 µM | 12.5 µM | 54.7 µM | 11.8 µM | 55.9 µM | 2.27 µM | > 100 µM | 2.44 µM | 30.1 µM | 12.6 µM | 55.9 µM | 14 µM | 58 µM | 12.5 µM | 51 µM | IC50 at 24 h [1]: 1.06 ± 1.21 µM; Selectivity Index (SI) (SI = IC50/MIC) (Vero cell line): 0.04; inhibition at 10 µM (leukemia cell lines): 70.8 to 94.8%; MIC [2]: > 29 µM; MIC [3]: 29 µM (≈ 10.1 µg/mL); inhibition at 10 µM (renal cancer cell lines): 66.2 to 100%
COc1cc(OC)c(S(N)(=O)=O)cc1C(=O)/C=C/c1ccc(Cl)cc1 [Compound 17b, (E)-5-(3-(4-Chlorophenyl)acryloyl)-2,4-dimethoxybenzenesulfonamide] | 2.08 µM | 29.3 µM | 1.63 µM | 7.14 µM | 2.5 µM | 25.9 µM | 2.41 µM | 22.3 µM | 3.54 µM | > 100 µM | 1.91 µM | > 100 µM | 2.14 µM | 12.6 µM | 11.5 µM | 57.2 µM | 3.17 µM | > 100 µM | 3.03 µM | 33.4 µM | inhibition at 10 µM (leukemia cell lines): 92.8 to 100%; inhibition at 10 µM (renal cancer cell lines): 78.5 to 100%
COc1cc(OC)c(S(N)(=O)=O)cc1C(=O)/C=C/c1ccc(C)cc1 [Compound 17c, (E)-2,4-Dimethoxy-5-(3-(p-tolyl)acryloyl)benzenesulfonamide] | 2.27 µM | 25.4 µM | 2.48 µM | 32.5 µM | 2.9 µM | 29.5 µM | 2.39 µM | 22.3 µM | 3.66 µM | 53.2 µM | 2.52 µM | > 100 µM | 2.17 µM | 14.4 µM | 11.5 µM | 55.7 µM | 3.65 µM | 45.3 µM | 4.09 µM | 40.8 µM | inhibition at 10 µM (leukemia cell lines): 78.9 to 94.3%
COc1cc(OC)c(S(=O)(=O)N(CCCl)CCCl)cc1C(=O)/C=C/c1cc(OC)c(OC)c(OC)c1 [Compound 18e, (E)-N,N-bis(2-Chloroethyl)-2,4-dimethoxy-5-(3-(3,4,5-trimethoxyphenyl)acryloyl)benzenesulfonamide] | 7.51 µM | > 100 µM | 1.66 µM | 8.59 µM | 3.77 µM | > 100 µM | 3.54 µM | 6.35 µM | > 100 µM | > 100 µM | 1.6 µM | > 100 µM | 3.61 µM | 7.51 µM | 4.65 µM | 27.6 µM | 5.71 µM | 45.7 µM | 3.54 µM | 6.88 µM | lethality (HCC-2998; HCC-2998, single dose 10 μM): 91.08%; IC50 (leukemia cell lines; read-out: IC50 (GI50), range over leukemia panel): 0.99 to 2.52 µM; lethality (SK-MEL-2; SK-MEL-2, single dose 10 μM): 94.49%
